Results from patent publication US20210369677A1, “SMALL MOLECULE ACTIVATORS OF POLYCYSTIN-2 (PKD2) AND USES THEREOF” (Northwestern University, priority 2020, published 2021).

Legend:
polycystin-2 channels [1] = molecular target: T1, polycystin-2 channels (Mus musculus, UniProt O35245, DEL771-772); test: Inside-out cilia patch of pIMCD cells, calcium opening of polycystin-2 channels; type: cell-based; conditions: Pkd2del-Z/delZ mice; read-out: EC50, potency of calcium opening polycystin-2 channels
T1 construct: the mouse channel orthologue under endogenous expression in the kidney collecting duct; endogenous in cells; host or cells: primary inner medullary collecting duct (pIMCD) cells of ARL13B-EGFP mice
T1 sequence (O35245 with tags, fused parts or gaps DEL771-772): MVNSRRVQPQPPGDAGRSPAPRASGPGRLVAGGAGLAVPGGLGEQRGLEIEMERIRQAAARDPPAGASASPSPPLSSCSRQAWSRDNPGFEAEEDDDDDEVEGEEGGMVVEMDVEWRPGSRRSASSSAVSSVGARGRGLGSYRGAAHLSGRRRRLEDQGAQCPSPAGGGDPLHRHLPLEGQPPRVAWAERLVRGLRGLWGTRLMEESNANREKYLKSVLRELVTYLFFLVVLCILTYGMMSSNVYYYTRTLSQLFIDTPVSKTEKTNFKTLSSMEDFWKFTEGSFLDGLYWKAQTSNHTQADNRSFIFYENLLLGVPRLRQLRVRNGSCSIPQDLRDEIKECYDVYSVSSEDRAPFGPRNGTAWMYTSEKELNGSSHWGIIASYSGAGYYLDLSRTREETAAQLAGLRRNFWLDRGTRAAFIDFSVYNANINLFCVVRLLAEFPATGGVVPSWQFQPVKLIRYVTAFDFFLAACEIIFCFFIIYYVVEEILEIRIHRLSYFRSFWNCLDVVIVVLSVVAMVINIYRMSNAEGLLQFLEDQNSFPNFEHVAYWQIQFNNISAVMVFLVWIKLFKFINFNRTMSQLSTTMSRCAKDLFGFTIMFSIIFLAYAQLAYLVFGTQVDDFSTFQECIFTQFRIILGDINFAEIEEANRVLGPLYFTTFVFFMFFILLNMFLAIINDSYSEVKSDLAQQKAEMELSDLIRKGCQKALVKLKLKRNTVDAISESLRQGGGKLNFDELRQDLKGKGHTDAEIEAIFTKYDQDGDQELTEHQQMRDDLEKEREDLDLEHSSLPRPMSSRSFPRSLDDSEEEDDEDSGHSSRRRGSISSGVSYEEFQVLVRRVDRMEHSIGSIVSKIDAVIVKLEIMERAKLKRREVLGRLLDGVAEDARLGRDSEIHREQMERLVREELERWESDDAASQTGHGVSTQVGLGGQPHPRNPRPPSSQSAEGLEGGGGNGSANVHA
Experimental: (§1) Cell culture of primary inner medullary collecting duct cells and immortalized cell lines. Primary inner medullary collecting ducts cells (pIMCD) were isolated from WT or Pkd2^del-Z/del-Z mice co-expressing the ARL13B-EGFP cilia reporter using the previously described method (Liu et al., 2018). Briefly, inner medullae were removed from the kidney and disassociated using a Dulbecco's phosphate buffered solution (DPBS) containing 2 mg/ml collagenase A and 1 mg/ml hyaluronidase. After mechanical disassociation on ice, medullary cells were cultured in Dulbecco's modified essential medium (DMEM) supplemented with 10% fetal bovine serum (FBS) and 100 units/ml penicillin/100 μg/ml streptomycin. Cilia were patched from cells within 6 days after isolation and within one passage. HEK PKD2^Null cell lines were generated using the CRISPR/Cas9 gene editing kit available from Addgene and authenticated using PCR analysis, as previously described (Liu et al., 2018). […]
(§2) Electrophysiology. The electrophysiologist was blinded by a third party in the laboratory, where test groups were assigned a letter to conceal the genetic identity of the cells being evaluated. […] Ciliary ion currents were recorded using borosilicate glass electrodes polished to resistances of 14-23 MΩ using the cilium patch method previously described (Vien et al., 2020). Single channel currents measured in the inside-out configuration were recorded in symmetrical sodium concentrations. […] Calcium was buffered with 5 EGTA (ethylene glycol-bis(o-aminoethyl ether)-N,N,N′,N′-tetraacetic acid), 5 Na4-BAPTA (Glycine, N, N′-[1,2-ethanediylbis(oxy-2,1-phenylene)]bis[N-(carboxymethyl)]-,tetrasodium) and 0.5 EDTA […]; free calcium was calculated using Maxchilator and titration of 1 M CaCl2) solution (Bers et al., 2010); pH was adjusted to 7.3 using NaOH. […] Whole cell currents used to measure CDD were also recorded in symmetrical sodium concentration, placing the internal recording solution in the pipette electrode and the external recording solution in the bath. […]

polycystin-2 channels [2] = test: as above; type: cell-based, mouse; conditions: Pkd2+/del-Z mice; read-out: EC50, potency of calcium opening polycystin-2 channels
Experimental: as §1, §2

In the case of `[Ca+2]` [Ca^2+, calcium], the EC50 (polycystin-2 channels [1]) is reported as 1400 ± 300 nM and the EC50 (polycystin-2 channels [2]) is reported as 1400 ± 400 nM.
